Data as given in PMC9774238, “In Vitro Antifungal Activity of Chimeric Peptides Derived from Bovine Lactoferricin and Buforin II against Cryptococcus neoformans var. grubii” (Antibiotics, 2022).
≈ marks a conversion by molar mass, not a printed value. Where two headings read alike, the source gives them in different places. Non-standard residues stand in square brackets, D forms with d. Residues, ends and D or L forms follow the SMILES beside them. No end group written: not given here. Ahx = NCCCCCC(=O)O

Assays:
[1] = system: C. neoformans 2807 clinical isolate; test: microbe, parasite or virus in culture; type: cell-based, Cryptococcus neoformans var. grubii; conditions: 72 h; for MICa (MIC of the chimeric peptide alone): 2807 clinical isolate
Method: (§1) The combined effect of FLC with the chimeric peptides was evaluated for the reference strain and one clinical isolate. The amounts of 50 µL of the chimeric peptide and 50 µL of antifungal (FLC) were added to the plates at final concentrations of: 2xMIC, MIC, 1/2xMIC, 1/4xMIC, 1/6xMIC, and 1/8xMIC. A yeast cell suspension was added at 0.5–2.5 × 10^3 cells/mL in 96-well plates. It was incubated for 72 h with shaking at 110 rpm and at 30 °C.
(§2) The effect of the combination of the two drugs was determined by calculating the fractional inhibitory concentration index (∑FIC), which was calculated as follows: ∑FIC = (MICcombined/MICalone) FLC + (MICcombined/MICalone) peptide.
(§3) FIC values ≤0.5 was considered as synergistic effect, 0.5 < FIC < 1 an additive effect, 1 < FIC < 4 indifference, and FIC ≥ 4 an antagonistic effect.

C. neoformans H99 = test: microbe, parasite or virus in culture; type: cell-based, Cryptococcus neoformans var. grubii; conditions: for MICa (MIC of the chimeric peptide alone): H99, 72 h
Method: as §1, §2, §3

[2] = system: L929 murine fibroblast cells; type: cell-based, mouse; conditions: 2 h
Method: The cell line used for this approach was the mouse fibroblast L929. The cells were washed with saline solution, trypsinized, and incubated for 5 min at 37 °C with a 5% CO2 atmosphere. The fibroblast cell suspension was prepared at a concentration of 1 × 10^6 cells in 7 mL of RPMI medium supplemented with fetal bovine serum (the number of cells needed for one plate) and dispensed into 96-well plates. Then, 70 µL of cells was added per well and incubated overnight at 37 °C and 5% CO2. Dilutions of each peptide chimera (3.125–200 µg/mL) were formulated, and 50 µL of each were added to the plate in quadruplicate and incubated for 2 h at 37 °C and 5% CO2. Control wells consisted of untreated cell cultures. In addition, 10 µL of MTT was added to each of the wells, and the plate was incubated for 4 h at 37 °C with a 5% CO2 atmosphere. Following that, the total volume of each well was withdrawn, 100 µL of DMSO was added, and it was incubated for 40 min at 37 °C with 5% CO2.
Plates were read with an iMark™ microplate reader (Bio-rad, Hercules, CA, USA) measuring the absorbance at 595 nm. Wells of untreated fibroblast cells were considered to be the negative control.

[3] = system: C. neoformans var. grubii strains; type: cell-based, Cryptococcus neoformans var. grubii; conditions: 72 h
Method: (§4) The in vitro susceptibility of chimeric, precursor peptides and FLC was evaluated by determining the minimal inhibitory concentration (MIC) on the basis of the broth microdilution method, according to document M27-A3 of the Clinical Laboratory Standards Institute (CLSI). It was diluted in RPMI-1640 medium (Sigma-Aldrich) at concentrations ranging from 1.6 to 100 μg/mL. The initial suspension (0.5 McFarland) was mixed into saline solution. Subsequently, a 1:50 dilution in saline solution and a 1:20 dilution in RPMI-1640 were tested (0.5–2.5 × 10^3 cells/mL). The negative control was the medium only without inoculum, and the positive control was the medium plus inoculum. The incubation time was 72 h at 30 °C at 110 rpm. The MIC values were determined by measuring the absorbance at 595 nm in a microplate reader and were defined as the lowest concentration of peptides capable of inhibiting growth equal to or higher than 50% in relation to the positive control. The MIC for fluconazole (FLC; 0.125–64 μg/mL; Pfizer, Brazil) was also determined according to M27-A3. The lowest concentration of the antifungal agent that was able to inhibit growth by 50% with respect to the positive control was considered the MIC.

[4] = system: C. neoformans var. grubii strains; type: cell-based, Cryptococcus neoformans var. grubii; conditions: 74 h
Method: (§5) The minimal fungicidal concentration (MFC) was evaluated after the yeast’s exposure to the chimeras (1.6 to 100 μg/mL), as described above. […] The MFC was defined as the lowest peptide concentration at which ≤1 colony was visible on the agar plate.

[5] = system: C. neoformans var. grubii H99; test: microbe, parasite or virus in culture; type: cell-based, Cryptococcus neoformans var. grubii
Method: as §4

[6] = system: C. neoformans var. grubii clinical isolate 2643; test: microbe, parasite or virus in culture; type: cell-based, Cryptococcus neoformans var. grubii
Method: as §4

[7] = system: C. neoformans var. grubii clinical isolate 2807; test: microbe, parasite or virus in culture; type: cell-based, Cryptococcus neoformans var. grubii
Method: as §4

[8] = system: C. neoformans var. grubii clinical isolate 3279; test: microbe, parasite or virus in culture; type: cell-based, Cryptococcus neoformans var. grubii
Method: as §4

[9] = system: C. neoformans var. grubii mutant CNAG_00730; test: MIC, broth microdilution (CLSI M27-A3); type: cell-based, Cryptococcus neoformans var. grubii; conditions: Cryptococcus neoformans, 72 h
Method: as §4

[10] = system: C. neoformans var. grubii mutant CNAG_01580; test: MIC, broth microdilution (CLSI M27-A3); type: cell-based, Cryptococcus neoformans var. grubii; conditions: Cryptococcus neoformans, 72 h
Method: as §4

[11] = system: C. neoformans var. grubii mutant CNAG_02050; test: MIC, broth microdilution (CLSI M27-A3); type: cell-based, Cryptococcus neoformans var. grubii; conditions: Cryptococcus neoformans, 72 h
Method: as §4

[12] = system: C. neoformans var. grubii mutant CNAG_02915; test: MIC, broth microdilution (CLSI M27-A3); type: cell-based, Cryptococcus neoformans var. grubii; conditions: Cryptococcus neoformans, 72 h
Method: as §4

[13] = system: C. neoformans var. grubii mutant CNAG_04693; test: MIC, broth microdilution (CLSI M27-A3); type: cell-based, Cryptococcus neoformans var. grubii; conditions: Cryptococcus neoformans, 72 h
Method: as §4

[14] = system: C. neoformans var. grubii mutant CNAG_04804; test: MIC, broth microdilution (CLSI M27-A3); type: cell-based, Cryptococcus neoformans var. grubii; conditions: Cryptococcus neoformans, 72 h
Method: as §4

[15] = system: C. neoformans var. grubii mutant CNAG_05150; test: MIC, broth microdilution (CLSI M27-A3); type: cell-based, Cryptococcus neoformans var. grubii; conditions: Cryptococcus neoformans, 72 h
Method: as §4

[16] = system: C. neoformans var. grubii mutant CNAG_06925; test: MIC, broth microdilution (CLSI M27-A3); type: cell-based, Cryptococcus neoformans var. grubii; conditions: Cryptococcus neoformans, 72 h
Method: as §4

[17] = system: C. neoformans var. grubii H99; test: Fluorescent staining for yeast viability (LIVE/DEAD, FUN1 and calcofluor white); type: cell-based, Cryptococcus neoformans var. grubii; conditions: 72 h
Method: Since the antifungal activity of the two chimeras was similar, it was decided to evaluate cell viability in the reference strain using one of the two chimeras by means of confocal microscopy. For this reason, the C6 chimera was evaluated in the H99 strain by staining with FUN1 and calcofluor white.
A commercial LIVE/DEAD™ yeast viability kit (Invitrogen, US) was used to analyze yeast viability after treatment with one of the chimeric peptides and FLC for 72 h at concentrations of 3.125, 6.25, 12.5, and 25 μg/mL and 4 and 8 μg/mL, respectively. In the dead control, the yeasts were treated with 5% hypochlorite for 10 min. Untreated yeast cells were used as a live control. Yeast cells were suspended in phosphate buffered saline (PBS). FUN-1 cell stains (10 μM) and calcofluor white (25 μM) were added to the yeast cell suspensions. After incubation in the dark at 30 °C for 30 min, the stained yeast was analyzed under a fluorescence microscope (Olympus FV1000) using filters set to excitation at approximately 488, 532, and 405 nm at 60× magnification. Fungal cell viability was determined by means of fluorescence analysis in at least 10 fields. Staining and interpretation of fluorescence were performed according to the manufacturer’s instructions.

[18] = system: mutants of C. neoformans var. grubii; test: MIC, mutants (summary statements); type: cell-based, Cryptococcus neoformans var. grubii; conditions: all mutants
Method: as §4

[19] = system: C. neoformans var. grubii H99; type: cell-based, Cryptococcus neoformans var. grubii; conditions: var. grubii H99, 74 h
Method: as §5

[20] = system: C. neoformans var. grubii clinical isolate 2807; type: cell-based, Cryptococcus neoformans var. grubii; conditions: var. grubii clinical isolate 2807, 74 h
Method: as §5

[21] = system: normal human T lymphocytes, fibroblasts, and endothelial cells; conditions: LfcinB at 200 μg/mL; cited from earlier work
Description: One of the main concerns about the use of antimicrobial peptides in systemic treatments is their toxicity.

[22] = var. grubii clinical isolate 2807, 72 h

CC(C)C[C@H](NC(=O)[C@H](CC(C)C)NC(=O)[C@H](CCCCN)NC(=O)[C@H](CCCCN)NC(=O)[C@H](CC(C)C)NC(=O)[C@H](CC(C)C)NC(=O)[C@H](CCCCN)NC(=O)CCCCCNC(=O)[C@H](CCCNC(=N)N)NC(=O)[C@H](Cc1c[nH]c2ccccc12)NC(=O)[C@H](CCC(N)=O)NC(=O)[C@H](Cc1c[nH]c2ccccc12)NC(=O)[C@H](CCCNC(=N)N)NC(=O)[C@@H](N)CCCNC(=N)N)C(=O)N[C@@H](CCCCN)C(N)=O [Chimera C5] (H-RRWQWR[Ahx]KLLKKLLK-NH2)
MICa (MIC of the chimeric peptide alone) [1]: 12.5 µg/mL | MICa (MIC of the chimeric peptide alone) (C. neoformans H99): 12.5 µg/mL | IC50 (fibroblast viability) [2]: 93.35 µg/mL (≈ 45.2 µM) | MIC [3]: 12.5 µg/mL (≈ 6.05 µM) | MFC [4]: 12.5 µg/mL (≈ 6.05 µM)

CC(C)C[C@H](NC(=O)[C@H](CC(C)C)NC(=O)[C@H](CCCNC(=N)N)NC(=O)[C@H](CCCNC(=N)N)NC(=O)[C@H](CC(C)C)NC(=O)[C@H](CC(C)C)NC(=O)[C@H](CCCNC(=N)N)NC(=O)CCCCCNC(=O)[C@H](CCCCN)NC(=O)[C@H](Cc1c[nH]c2ccccc12)NC(=O)[C@H](CCC(N)=O)NC(=O)[C@H](Cc1c[nH]c2ccccc12)NC(=O)[C@H](CCCCN)NC(=O)[C@@H](N)CCCCN)C(=O)N[C@@H](CCCNC(=N)N)C(N)=O [Chimera C6] (H-KKWQWK[Ahx]RLLRRLLR-NH2)
MICa (MIC of the chimeric peptide alone) [1]: 6.25 µg/mL | MICa (MIC of the chimeric peptide alone) (C. neoformans H99): 6.25 µg/mL | IC50 (fibroblast viability) [2]: 67.44 µg/mL (≈ 32.2 µM) | MIC [3]: 6.25 µg/mL (≈ 2.99 µM) | MFC [4]: 6.25 µg/mL (≈ 2.99 µM)

OC(Cn1cncn1)(Cn1cncn1)c1ccc(F)cc1F [FLC, fluconazole]
MIC ([5]; Cryptococcus neoformans, H99 reference strain, broth microdilution RPMI-1640, 72 h, 30 °C, ≥50% inhibition (A595), read-out: MIC): 4 µg/mL | susceptibility of the strain to FLC ([5]; H99 strain): sensitive | MIC ([6]; Cryptococcus neoformans, clinical isolate 2643, broth microdilution RPMI-1640, 72 h, 30 °C, ≥50% inhibition, read-out: MIC): 8 µg/mL | MIC ([7]; Cryptococcus neoformans, clinical isolate 2807, broth microdilution RPMI-1640, 72 h, 30 °C, ≥50% inhibition, read-out: MIC): 16 µg/mL | MIC ([8]; Cryptococcus neoformans, clinical isolate 3279, broth microdilution RPMI-1640, 72 h, 30 °C, ≥50% inhibition, read-out: MIC): 16 µg/mL | MIC [9]: 0.75 µg/mL (≈ 2.45 µM) | MIC [10]: 0.25 µg/mL (≈ 0.816 µM) | MIC [11]: 1 µg/mL (≈ 3.27 µM) | MIC [12]: 1.5 µg/mL (≈ 4.9 µM) | MIC [13]: 1 µg/mL (≈ 3.27 µM) | MIC [14]: 1 µg/mL (≈ 3.27 µM) | MIC [15]: 2 µg/mL (≈ 6.53 µM) | MIC [16]: 1 µg/mL (≈ 3.27 µM) | cell population versus live control ([17]; fluconazole 4 μg/mL (MIC)): a decrease in the cell population was observed | cell decrease ([17]; fluconazole 8 μg/mL): > 80% | MIC ([1]; Cryptococcus neoformans, clinical isolate 2807, checkerboard, 30 °C, 110 rpm, read-out: MICb (MIC of FLC alone)): 16 µg/mL | MIC (C. neoformans H99; Cryptococcus neoformans, H99, checkerboard, 72 h, 30 °C, 110 rpm, read-out: MICb (MIC of FLC alone)): 4 µg/mL | susceptibility of the strains to FLC [18]: sensitive

KKWQWK [[K]-LfcinB (20–25)]
MIC ([5]; var. grubii H99, 72 h): 111 µM | MIC [7, 22]: 111 µM | MFC [19]: 111 µM | MFC [20]: 111 µM

KLLKKLLK [[K]-BFII (32–35)Pal]
MIC ([5]; var. grubii H99, 72 h): 114 µM | MIC [7, 22]: 114 µM | MFC [19]: 114 µM | MFC [20]: 114 µM

LfcinB: bovine lactoferricin, antimicrobial peptide (FKCRRWQWRMKKLGAPSITCVRRAF; ends and bridges not checked; cysteine pairing not given here; UniProt P24627 36-60, looked up)
toxicity for normal human cell cultures [21]: not toxic

RLLRRLLR [BFII (32–35)Pal]
MIC ([5]; var. grubii H99, 72 h): > 46 µM | MIC ([6]; var. grubii clinical isolate 2643, 72 h): > 46 µM | MIC [7, 22]: > 46 µM | MIC ([8]; var. grubii clinical isolate 3279, 72 h): > 46 µM | MFC [19]: > 46 µM | MFC [20]: > 46 µM
